Patent US20090227619A1, “Harmine derivatives, intermediates used in their preparations, preparation processes and use therefo” (priority 2003, published 2009)
pIC50: −log10 of the molar value. Read-outs that look alike come from different tables or passages of the source.

Legend:
Bel-7402 = assay: In vitro cytotoxicity, IC50 by MTT method, Bel-7402; type: cell-based
Procedure: (§1) Culture medium powder RPMI1640 was dissolved in a proper amount of tri-distilled water according to the instruction of the product. […] It was the basic culture solution. The complete culture solution was added with FBS having a final concentration of 10%, 100 U/ml penicillin and 100 µg/ml streptomycin. The solution was fully stirred by a magnetic blender, and the pH of the solution was adjusted to 6.8-7.0. The volume was kept constant. After being filtered and disinfected, the solution was kept into several containers which were sealed and stored at 4° C.
(§2) The cells were placed in a culture dish followed by the addition of complete culture liquid RPMI1640 and then cultured in a incubator comprising 5% CO2 at 37° C. In the exponential growth phase, the cells grew vigorously. If the culture liquid became yellow, the liquid should be replaced instantly.
(§3) The cells, at a concentration of 10^5/ml, were inoculated at a 96-pore culture plate. In each pore, 100 μl cells were inoculated. The cells were placed in a CO2 incubator until the cells were in the logarithmic growth phase. The samples to be tested were added according to the preset concentration gradient. For each gradient, the test was conducted at least three times. An equivalent amount of solvent for dissolving the samples was added in the control group. After 48 h of culture, each pore was added 20 μl MTT (5 mg/ml). The cells were cultured at 37° C. for 4 h. After the supernatant was carefully removed, 100 μl DMSO was added in each pore. The plate was agitated for about 10 minutes such that the precipitates were dissolved. After that, OD value was identified with a Microplate Reader at the wavelength of 490 nm. The survival rate of the cells at various concentrations was calculated according to the following formula:
(§4) Survival rate %=average OD value of the sample group/average OD value of the control group×100%
(§5) Plots of log survival rate of the cells vs. concentration of the medicament were constructed, and the IC50 value of each sample was calculated according to graphing methods.

PLA-801 = assay: In vitro cytotoxicity, IC50 by MTT method, PLA-801; type: cell-based
Procedure: as §1, §2, §3, §4, §5

Lovo = assay: In vitro cytotoxicity, IC50 by MTT method, Lovo; type: cell-based
Procedure: as §1, §2, §3, §4, §5

HepG2 = assay: In vitro cytotoxicity, IC50 by MTT method, HepG2; type: cell-based, human
Procedure: as §1, §2, §3, §4, §5

BGC-823 = assay: In vitro cytotoxicity, IC50 by MTT method, BGC-823; type: cell-based
Procedure: as §1, §2, §3, §4, §5

NIH3T3 = assay: In vitro cytotoxicity, IC50 by MTT method, NIH3T3; type: cell-based
Procedure: as §1, §2, §3, §4, §5

Hela = assay: In vitro cytotoxicity, IC50 by MTT method, Hela; type: cell-based
Procedure: as §1, §2, §3, §4, §5

[1] = PLA-801 cell strain, read-out: IC50 PLA-801
[2] = Bel7402 cell strain, read-out: IC50 Bel7402
[3] = Lovo cell strain, read-out: IC50 Lovo
[4] = HepG2 cell strain, read-out: IC50 HepG2
[5] = BGC823 cell strain, read-out: IC50 BGC823
[6] = NIH3T3 cell strain, read-out: IC50 NIH3T3
[7] = Hela cell strain, read-out: IC50 Hela

Compound	pIC50 (PLA-801; [1])	pIC50 (Bel-7402; [2])	pIC50 (Lovo; [3])	pIC50 (HepG2; [4])	pIC50 (BGC-823; [5])	pIC50 (NIH3T3; [6])	pIC50 (Hela; [7])	other results
NNC(=O)c1cc2c(cn1)[nH]c1ccccc12 [Compound 20, β-carboline-3-carbohydrazine]	–	–	–	–	–	–	–	pIC50 (Bel-7402; BeI7402, MTT, read-out: IC50): 2.84; pIC50 (PLA-801; PLA-801, MTT, read-out: IC50): 3.13; pIC50 (Lovo; Lovo, MTT, read-out: IC50): 3.51; pIC50 (HepG2; HepG2, MTT, read-out: IC50): 3.44; pIC50 (BGC-823; BGC823, MTT, read-out: IC50): 3.13; pIC50 (NIH3T3; NIH3T3, MTT, read-out: IC50): 3.49; pIC50 (Hela; Hela, MTT, read-out: IC50): 3.40
CCCc1nc(C(=O)O)cc2c3ccccc3n(CCCc3ccccc3)c12 [Compound 75, 9-phenylpropyl-1-propyl-β-carboline-3-carboxylic acid]	3.64	–	–	–	–	–	–	pIC50 (Bel-7402; Homo sapiens, Bel-7402, Bel7402 cell strain, read-out: IC50 Bel7402): 3.70; pIC50 (Lovo; Homo sapiens, Lovo cell strain, read-out: IC50 Lovo): 4.10; pIC50 (HepG2; Homo sapiens, HepG2 cell strain, read-out: IC50 HepG2): 3.89; pIC50 (BGC-823; Homo sapiens, BGC-823, BGC823 cell strain, read-out: IC50 BGC823): 3.62; pIC50 (NIH3T3; Mus musculus, NIH3T3 cell strain, read-out: IC50 NIH3T3): 3.96; pIC50 (Hela; Homo sapiens, Hela cell strain, read-out: IC50 Hela): 3.85
CCOC(=O)c1cc2c3ccccc3n(CC(=O)c3ccccc3)c2cn1 [Compound 47, ethyl 9-acetophenone-β-carboline-3-carboxylate]	< 2.52	2.99	< 2.52	< 2.52	< 2.52	< 2.52	< 2.52	–
Nc1cc2c(cn1)[nH]c1ccccc12 [Compound 21, 3-amino-β-carboline]	–	–	–	–	–	–	–	pIC50 (Bel-7402; Homo sapiens, Bel-7402, BeI7402, MTT, read-out: IC50): 2.80; pIC50 (PLA-801; PLA-801, MTT, read-out: IC50): 3.24; pIC50 (Lovo; Homo sapiens, Lovo, MTT, read-out: IC50): 3.62; pIC50 (HepG2; Homo sapiens, HepG2, MTT, read-out: IC50): 3.47; pIC50 (BGC-823; Homo sapiens, BGC-823, BGC823, MTT, read-out: IC50): 3.07; pIC50 (NIH3T3; Mus musculus, NIH3T3, MTT, read-out: IC50): 3.54; pIC50 (Hela; Homo sapiens, Hela, MTT, read-out: IC50): 3.51
CCOC(=O)c1cc2c3ccccc3n(Cc3c(F)c(F)c(F)c(F)c3F)c2cn1 [Compound 46, ethyl 9-(2′,3′,4′,5′,6′-pentafluoro)benzyl-β-carboline-3-carboxylate]	4.30	5.00	4.40	3.92	4.30	4.22	3.01	–
2,9-dibenzyl-β-carbolinium bromate [Compound 89]	4.00	4.15	4.52	4.52	4.22	4.52	4.70	–
NNC(=O)c1cc2c3ccccc3n(Cc3ccccc3)c2cn1 [Compound 52, 3-carbohydrazide-9-benzyl-β-carboline]	3.28	4.22	3.60	3.85	3.57	3.66	3.60	–
2,9-dimethyl-β-carbolinium bromate [Compound 87]	3.55	3.43	2.74	3.70	3.59	3.42	4.15	–
